Experimental data: patent US10059689B2, “Substituted heteroaryl compounds and methods of use” (Sunshine Lake Pharma Co., Ltd., priority 2014, dated 2018)

Key:
[1] = Compound stability in human liver microsomes; type: in vitro ADME; conditions: for half-life: pH 7.4, 37° C., NADPH, read-out: Human T1/2; for CLint scaled: pH 7.4, in vivo CLint extrapolated
Description: (§1) Human or rat liver microsomes incubations were conducted in duplicate in polypropylene tubes. The typical incubation mixtures consisted of human or rat liver microsomes (0.5 mg protein/mL), compounds of interest (5 μM) and NADPH (1.0 mM) in a total volume of 200 μL potassium phosphate buffer (PBS, 100 mM, pH 7.4). Compounds were dissolved in DMSO and diluted with PBS such that the final concentration of DMSO was 0.05%. The enzymatic reactions were commenced with the addition of protein after a 3-min preincubation and incubated in a water bath open to the air at 37° C. Reactions were terminated at various time points (0, 5, 10, 15, 30, 60 min) by adding equal volume of ice-cold acetonitrile. The samples were stored at −80° C. until LC/MS/MS assays.
(§2) The concentrations of compounds in the incubation mixtures of human or rat liver microsomes were determined by a LC/MS/MS method. The ranges of the linearity in the concentration range were determined for each tested compounds.
(§3) A parallel incubation was performed using denatured microsomes as the negative control, and reactions were terminated at various time points (0, 15, 60 min) after incubation at 37° C.
(§4) Verapamil (1 μM) was selected as the positive control, and reactions were terminated at various time points (0, 5, 10, 15, 30, 60 min) after incubation at 37° C. Both positive and negative control samples were included in each assay to ensure the integrity of the microsomal incubation system.
(§5) In addition, the stability date of compound in human and rat liver microsomes was also obtained through the following method. Human or rat liver microsomes incubations were conducted in duplicate in polypropylene tubes. The typical incubation mixtures consisted of human or rat liver microsomes (0.5 mg protein/mL), compounds of interest (1.5 μM) and EDTA (1.0 mM) in a total volume of 30 μL potassium phosphate buffer (PBS, 100 mM, pH 7.4). Compounds were dissolved in DMSO and diluted with PBS such that the final concentration of DMSO was 0.2%. The enzymatic reactions were commenced with the addition of 15 μL NADPH (final concentration: 2 mM) after a 10-min preincubation and incubated in a water bath open to the air at 37° C. Reactions were terminated at various time points (0, 15, 30, 60 min) by adding 135 μL acetonitrile (contain IS). The samples were centrifuged at 4000 rpm for 10 min to remove protein, the supernatant was stored at −80° C. until LC/MS/MS assays. Ketanserin (1 μM) was selected as the positive control, and reactions were terminated at various time points (0, 15, 30, 60 min) after incubation at 37° C. Both positive and negative control samples were included in each assay to ensure the integrity of the microsomal incubation system.
(§6) The concentrations of compounds in human or rat liver microsome incubations were plotted as a percentage of the relevant zero time point control for each reaction. The in vivo CLint were extrapolated (ref.: Naritomi, Y.; Terashita, S.; Kimura, S.; Suzuki, A.; Kagayama, A.; and Sugiyama, Y.; Prediction of human hepatic clearance from in vivo animal experiments and in vitro metabolic studies with liver microsomes from animals and humans. Drug Metab. Dispos., 2001, 29: 1316-1324).

Aurora-A (h) = target: T1, Aurora-A (h) (Homo sapiens, UniProt O14965); test: Aurora-A (h) kinase assay; type: biochemical
T1 construct: purchased Millipore UK Ltd (contract assay service)
T1 sequence (O14965 1-403): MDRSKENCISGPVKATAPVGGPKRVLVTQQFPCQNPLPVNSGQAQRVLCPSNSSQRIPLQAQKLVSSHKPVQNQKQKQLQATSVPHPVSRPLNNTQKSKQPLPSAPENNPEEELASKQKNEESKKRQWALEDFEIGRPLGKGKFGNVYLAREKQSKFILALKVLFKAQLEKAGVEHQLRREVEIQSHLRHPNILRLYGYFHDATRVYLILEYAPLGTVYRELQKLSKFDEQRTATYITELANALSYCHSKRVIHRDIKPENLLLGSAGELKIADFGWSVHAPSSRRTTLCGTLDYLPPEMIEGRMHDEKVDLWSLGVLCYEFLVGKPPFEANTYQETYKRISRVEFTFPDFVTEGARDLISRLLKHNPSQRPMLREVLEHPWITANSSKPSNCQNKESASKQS
Description: Kinase assays can be performed by measurement of incorporation of γ-33P ATP into immobilized myelin basic protein (MBP). High binding white 384 well plates (Greiner) are coated with MBP (Sigma #M-1891) by incubation of 60 μL/well of 20 μg/mL MBP in Tris-buffered saline (TBS; 50 mM Tris pH 8.0, 138 mM NaCl, 2.7 mM KCl) for 24 h at 4° C. Plates are washed 3× with 100 μL TBS. Kinase reactions are carried out in a total volume of 34 μL in kinase buffer (according to the need to make, for example, 5 mM Hepes pH 7.6, 15 mM NaCl, 0.01% bovine gamma globulin (Sigma #I-5506), 10 mM MgCl2, 1 mM DTT, 0.02% TritonX-100). Compound dilutions are performed in DMSO and added to assay wells to a final DMSO concentration of 1%. Each data point is measured in duplicate, and at least two duplicate assays are performed for each individual compound determination. Enzyme is added to final concentrations of 10 nM or 20 nM, for example. A mixture of unlabeled ATP and γ-33P ATP is added to start the reaction (2×10^6 cpm of γ-33P ATP per well (3000 Ci/mmole) and 10 μM unlabeled ATP, typically. The reactions are carried out for 1 h at room temperature with shaking Plates are washed 7× with TBS, followed by the addition of 50 μL/well scintillation fluid (Wallac). Plates are read using a Wallac Trilux counter. This is only one format of such assays; various other formats are possible, as known to one skilled in the art.
The above assay procedure can be used to determine the IC50 for inhibition and/or the inhibition constant, Ki. The IC50 is defined as the concentration of compound required to reduce the enzyme activity by 50% under the condition of the assay. The IC50 value is estimated by preparing a 10 point curve using a ½ log dilution series (for example, a typical curve may be prepared using the following compound concentrations: 3 μM, 1 μM, 0.3 μM, 0.1 μM, 0.03 μM, 0.01 μM, 0.003 μM, 0.001 μM, 0.0003 μM and 0 μM).
Aurora-A (h) is incubated with 8 mM MOPS pH 7.0, 0.2 mM EDTA, 200 μM LRRASLG (Kemptide), 10 mM MgAcetate and [γ-^33P-ATP] […]

[2] = Compound stability in rat liver microsomes; type: in vitro ADME; conditions: for half-life: pH 7.4, 37° C., NADPH, read-out: Rat T1/2; for CLint scaled: pH 7.4, in vivo CLint extrapolated
Description: as §1, §2, §3, §4, §5, §6

| half-life [1] [min] | CLint scaled [1] [L/h/kg] | IC50 (Aurora-A (h)) [µM] | half-life [2] [min] | CLint scaled [2] [L/h/kg] | Compound |
| --- | --- | --- | --- | --- | --- |
| 22.9 | 4.54 | 0.066 | 16.5 | 9.03 | CN(c1nc(Nc2cnn(C)c2)ncc1Cl)C1CCN(c2ccc(C#N)cn2)CC1 [Ex. 5, 6-(4-((5-chloro-2-((1-methyl-1H-pyrazol-4-yl)amino)pyrimidin-4-yl) (methyl)amino)piperidin-1-yl)nicotinonitrile] |
| 68.2 | 1.53 |  | 9.68 | 15.4 | Cc1cc(Nc2ncc(Cl)c(NC3CCN(c4ccc(C#N)nn4)CC3)n2)nn1C [Ex. 13, 6-(4-((5-chloro-2-((1,5-dimethyl-1H-pyrazol-3-yl)amino)pyrimidin-4-yl)amino)piperidin-1-yl)pyridazine-3-carbonitrile] |
| 25.3 | 4.13 |  | 18.9 | 7.87 | Cc1c2ccc(Nc3ncc(Cl)c(NC4CCN(c5ccc(C#N)nn5)CC4)n3)cc2nn1C [Ex. 12, 6-(4-((5-chloro-2-((2,3-dimethyl-2H-indazol-6-yl)amino)pyrimidin-4-yl)amino)piperidin-1-yl)pyridazine-3-carbonitrile] |
| 5.51 | 18.9 |  | 17.4 | 8.54 | Cc1nn(C)cc1Nc1ncc(Cl)c(NC2CCN(c3ccc(C#N)cn3)CC2)n1 [Ex. 10, 6-(4-((5-chloro-2-((1,3-dimethyl-1H-pyrazol-4-yl)amino)pyrimidin-4-yl)amino)piperidin-1-yl)nicotinonitrile] |
| 13.1 | 7.96 |  | 23.6 | 6.33 | Cc1nn(C)cc1Nc1ncc(Cl)c(NC2CCN(c3ccc(C#N)nn3)CC2)n1 [Ex. 11, 6-(4-((5-chloro-2-((1,3-dimethyl-1H-pyrazol-4-yl)amino)pyrimidin-4-yl)amino)piperidin-1-yl)pyridazine-3-carbonitrile] |
| 13.2 | 7.88 | 0.503 | 23.2 | 6.42 | Cc1c2ccc(Nc3ncc(Cl)c(NC4CCN(c5ccc(C#N)cn5)CC4)n3)cc2nn1C [Ex. 4] |
| 40.8 | 2.56 | 0.068 | 27.7 | 5.38 | Cn1cc(Nc2ncc(Cl)c(NC3CCN(c4ccc(C#N)cn4)CC3)n2)cn1 [Ex. 1, 6-(4-((5-chloro-2-((1-methyl-1H-pyrazol-4-yl)amino)pyrimidin-4-yl)amino)piperidin-1-yl)nicotinonitrile] |
